Organism: Rattus norvegicus
Assay: DrugMatrix - Regimen: Daily Repeat
Assay type: toxicity, organism-based, Sprague-Dawley
Set-up: regimen Daily Repeat, gender Male, age 6-8 weeks
Conditions: in vivo, sc, route mini-PUMP - SUBCUTANEOUS, vehicle 100 % SALINE
[1] = 2 mg/kg, 72 h, tissue Blood, dose level High, time 3 day
[2] = 2 mg/kg, 72 h, tissue Plasma, dose level High, time 3 day
[3] = 2 mg/kg, 120 h, tissue Blood, dose level High, time 5 day
[4] = 2 mg/kg, 120 h, tissue Plasma, dose level High, time 5 day
[5] = 2 mg/kg, […], tissue Blood, dose level High, time 14 day
[6] = 2 mg/kg, […], tissue Plasma, dose level High, time 14 day

For `CC(C)NCC(O)c1ccc(O)c(O)c1` (centres undefined) [ISOPROTERENOL], the “NUCLEATED RED BLOOD CELLS” value (0 mg/kg, […], tissue Blood, dose level Control, time 14 day) was 0.17 /100WBC, the “CREATINE PHOSPHOKINASE” value (0 mg/kg, […], tissue Plasma, dose level Control, time 14 day) was 262 u/L and the ABSOLUTE BASOPHIL [1] was 95 cells/µL. The ABSOLUTE EOSINOPHIL [1] was 95 cells/µL, the ABSOLUTE LYMPHOCYTE [1] was 13000 cells/µL and the ABSOLUTE MONOCYTE [1] was 420 cells/µL. The BASOPHIL [1] was 0.5%, the EOSINOPHIL [1] was 0.55% and the “ERYTHROCYTE COUNT” value [1] was 6.36 x10E6/uL. For the same compound, the HEMATOCRIT [1] was 43.4%, the HEMOGLOBIN [1] was 13 G/DL and the “LEUKOCYTE COUNT” value [1] was 17.82 x10E3/uL. The LYMPHOCYTE [1] was 73.55%, the “MEAN CORPUSCULAR HEMOGLOBIN” value [1] was 20.5 pg and the “MEAN CORPUSCULAR HEMOGLOBIN CONCENTRATION” value [1] was 30.05 G/DL. The “MEAN CORPUSCULAR VOLUME” value [1] was 68.3 fL, the MONOCYTE [1] was 2.35% and the NEUTROPHIL [1] was 22.05%. The “PLATELET COUNT” value [1] was 1170.5 x10E3/uL, the “ALANINE AMINOTRANSFERASE” value [2] was 32 u/L and the ALBUMIN [2] was 3.9 G/DL. The “ALKALINE PHOSPHATASE” value [2] was 349 u/L, the “ASPARTATE AMINOTRANSFERASE” value [2] was 75.5 u/L and the “BLOOD UREA NITROGEN” value [2] was 17 mg/dL. The “CARBON DIOXIDE” value [2] was 40.5 mmol/L, the CHLORIDE [2] was 107 MEQ/L and the CHOLESTEROL [2] was 87.5 mg/dL. The “CREATINE PHOSPHOKINASE” value [2] was 449.5 u/L, the CREATININE [2] was 0.55 mg/dL and the GLUCOSE [2] was 141 mg/dL. The LIPASE [2] was 47.5 u/L, the PHOSPHORUS [2] was 9.6 mg/dL and the POTASSIUM [2] was 6.05 MEQ/L. The SODIUM [2] was 150.5 MEQ/L, the “TOTAL BILIRUBIN” value [2] was 0.3 mg/dL and the “TOTAL PROTEIN” value [2] was 6.25 G/DL. For the same compound, the “URIC ACID” value [2] was 0.8 mg/dL, the ABSOLUTE BASOPHIL [3] was 50 cells/µL and the ABSOLUTE EOSINOPHIL [3] was 110 cells/µL. The ABSOLUTE LYMPHOCYTE [3] was 10400 cells/µL, the ABSOLUTE MONOCYTE [3] was 350 cells/µL and the BASOPHIL [3] was 0.37%. For the same compound, the EOSINOPHIL [3] was 0.83%, the “ERYTHROCYTE COUNT” value [3] was 6.25 x10E6/uL and the HEMATOCRIT [3] was 42.73%. The HEMOGLOBIN [3] was 12.9 G/DL, the “LEUKOCYTE COUNT” value [3] was 14.26 x10E3/uL and the LYMPHOCYTE [3] was 72.93%. For the same compound, the “MEAN CORPUSCULAR HEMOGLOBIN” value [3] was 20.63 pg, the “MEAN CORPUSCULAR HEMOGLOBIN CONCENTRATION” value [3] was 30.17 G/DL and the “MEAN CORPUSCULAR VOLUME” value [3] was 68.4 fL. For the same compound, the MONOCYTE [3] was 2.5%, the NEUTROPHIL [3] was 22.8% and the “PLATELET COUNT” value [3] was 1375.33 x10E3/uL. The “ALANINE AMINOTRANSFERASE” value [4] was 41.67 u/L, the ALBUMIN [4] was 3.77 G/DL and the “ALKALINE PHOSPHATASE” value [4] was 331.33 u/L. For the same compound, the “ASPARTATE AMINOTRANSFERASE” value [4] was 78 u/L, the “BLOOD UREA NITROGEN” value [4] was 15.33 mg/dL and the “CARBON DIOXIDE” value [4] was 39.67 mmol/L. The CHLORIDE [4] was 108 MEQ/L, the CHOLESTEROL [4] was 85.67 mg/dL and the “CREATINE PHOSPHOKINASE” value [4] was 183 u/L. For the same compound, the CREATININE [4] was 0.57 mg/dL, the GLUCOSE [4] was 168.33 mg/dL and the LIPASE [4] was 99 u/L. For the same compound, the PHOSPHORUS [4] was 10.23 mg/dL, the POTASSIUM [4] was 5.97 MEQ/L and the SODIUM [4] was 150 MEQ/L. For the same compound, the “TOTAL BILIRUBIN” value [4] was 0.33 mg/dL, the “TOTAL PROTEIN” value [4] was 6.03 G/DL and the “URIC ACID” value [4] was 1 mg/dL. For the same compound, the ABSOLUTE BASOPHIL [5] was 60 cells/µL, the ABSOLUTE EOSINOPHIL [5] was 110 cells/µL and the ABSOLUTE LYMPHOCYTE [5] was 11600 cells/µL. It also gave an ABSOLUTE MONOCYTE [5] of 300 cells/µL, a BASOPHIL [5] of 0.42% and an EOSINOPHIL [5] of 0.72%. The “ERYTHROCYTE COUNT” value [5] was 6.69 x10E6/uL, the HEMATOCRIT [5] was 44.4% and the HEMOGLOBIN [5] was 14.28 G/DL. The “LEUKOCYTE COUNT” value [5] was 14.87 x10E3/uL, the LYMPHOCYTE [5] was 78.08% and the “MEAN CORPUSCULAR HEMOGLOBIN” value [5] was 21.3 pg. For the same compound, the “MEAN CORPUSCULAR HEMOGLOBIN CONCENTRATION” value [5] was 32.12 G/DL, the “MEAN CORPUSCULAR VOLUME” value [5] was 66.4 fL and the MONOCYTE [5] was 1.94%. For the same compound, the NEUTROPHIL [5] was 18.22%, the “PLATELET COUNT” value [5] was 1074.6 x10E3/uL and the “ALANINE AMINOTRANSFERASE” value [6] was 40.6 u/L. For the same compound, the ALBUMIN [6] was 4 G/DL, the “ALKALINE PHOSPHATASE” value [6] was 424.4 u/L and the “ASPARTATE AMINOTRANSFERASE” value [6] was 98.2 u/L. For the same compound, the “BLOOD UREA NITROGEN” value [6] was 19.2 mg/dL, the “CARBON DIOXIDE” value [6] was 38.8 mmol/L and the CHLORIDE [6] was 105.8 MEQ/L. The CHOLESTEROL [6] was 73.4 mg/dL, the “CREATINE PHOSPHOKINASE” value [6] was 274.2 u/L and the CREATININE [6] was 0.8 mg/dL. For the same compound, the GLUCOSE [6] was 132 mg/dL, the “LACTATE DEHYDROGENASE” value [6] was 214.4 u/L and the LIPASE [6] was 11.8 u/L. The PHOSPHORUS [6] was 9.98 mg/dL, the POTASSIUM [6] was 6.02 MEQ/L and the SODIUM [6] was 149.2 MEQ/L. For the same compound, the “TOTAL BILIRUBIN” value [6] was 0.36 mg/dL, the “TOTAL PROTEIN” value [6] was 6.46 G/DL and the “URIC ACID” value [6] was 0.62 mg/dL. The “ABSOLUTE BASOPHIL” value ([…], 72 h, tissue Blood, dose 4.2 mg/Kg, dose level M1, time 3 day) was 0 CELLS/uL.

Reference: ChEMBL document CHEMBL3885881, “DrugMatrix”
